Assays:
[1] = healthy subjects, higher doses of vanoxerine; cited from earlier work
[2] = Example 5: concentrations of vanoxerine and its metabolites in patients after a 300 mg dose of vanoxerine; format: in vivo, human; settings: low concentration group, 300 mg vanoxerine
Procedure: Each patient gave samples before administration of their dose, and then again at nine further time points, 30 minutes after administration, 1, 2, 3, 4, 6, 8, 12, and 24 hours post administration.

[3] = Example 4: plasma concentrations of vanoxerine in patients after an oral vanoxerine HCL tablet; format: in vivo, human; settings: outlier patient, CYP2D6 slow metabolizer
Source text: The results identified high levels of variability between patients and a single outlier, who was particularly profiled to determine the possible cause of the high plasma concentration levels.
Accordingly, the individual patient could have received administration of ½ to ¼ the dose of other patients for the same effective plasma concentration as the majority of the patients in the study.

[4] = Preliminary studies of daily use of vanoxerine over 7, 10 and 14 days; format: in vivo; settings: daily use over 7, 10, and 14 days, 75, 100, 125, and 150 mg a day
Source text: However, control and prevention of events of cardiac arrhythmia are important to these patients to prevent future recurrences and the deleterious effects and morbidity.

Fc1ccc(C(OCCN2CCN(CCCc3ccccc3)CC2)c2ccc(F)cc2)cc1 [Vanoxerine, 1-[2-[bis(4-fluorophenyl)methoxy]ethyl]-4-(3-phenylpropyl)piperazine]
effects seen at higher doses [1]: concentration difficulties, increase systolic blood pressure, asthenia, and a feeling of drug influence | plasma levels, highest at any time point [2]: ~40 ng/mL | plasma concentration [3]: unusually high plasma concentration | effects of daily use [4]: increased heart rate and systolic blood pressure
